The values below come from EP4111863A1, “PHOSPHORUS USE EFFICIENCY ENHANCERS AS PLANT GROWTH PROMOTORS” (EuroChem Antwerpen, priority 2021, dated 2023).

One experiment deals with SPX1. As to the kind of experiment: Chemical activity assessment: SPX1 phosphate starvation biomarker, pSPX1::GUS reporter line, GUS stained area. Conditions: for GUS (SPX1) stained area normalized to the number of seeds (pixels): 50 µM compound, low phosphate modMS liquid medium, 7 days after germination, low phosphate control average of the same plate. It counts as in vivo, Arabidopsis thaliana. In short, it runs like this: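 Arabidopsis Col-0 pSPX1::GUS seedlings grown in 96-well plates in low-phosphate liquid modMS with 1% sucrose, compounds at 50 µM final (1% DMSO). At 7 days after germination, GUS stained 1.5 h at 37 °C and blue signal area measured from scans. Wells with leaf area 50% or less of control were omitted.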

Experiment [1] concerns Arabidopsis. As to the kind of experiment: Arabidopsis vertical plate growth assay (primary root length, shoot biomass). It counts as in vivo, Arabidopsis thaliana. Conditions: low phosphate; for Primary root length (in % versus control): Table 2, versus control without compound. As for the experimental part:
(§1) All Arabidopsis plant experiments were performed using the Arabidopsis thaliana Columbia-0 background. The Arabidopsis pSPX1::GUS line is described in the […] 2008, 54: 965-975. For rice, the cultivar Nipponbare was used. For maize, the cultivars DKC 2931 and B104 were used for regular pot experiments and sand-based pot experiments, respectively. For soybean, the cultivar Primus was used. […] The medium was solidified due to the addition of 0,6% Gelrite, unless stated otherwise. In case of vertical plates (root length and root hair measurements), the medium was supplied with 0.5% of sucrose and 1 µM (low phosphate, 1 µM KH2PO4, 9.9 mM KCI), 10 µM (low phosphate 10 µM KH2PO4, 9.9 mM KCI) or 1.25 mM KH2PO4 (high phosphate). Arabidopsis seeds were stratified for 2 days at 4 °C before germination. Seedlings were germinated in climate-controlled growth chambers at 22 °C under continuous light (100 µmol m^-2 s^-1). Husked rice seeds were germinated on wetted Whatman paper for 2 days at 37 °C and then transferred to Sterivent boxes or square Petri dishes with solid medium. Maize and soybean seeds were wetted 24 hours at room temperature prior to sowing in pots.
Arabidopsis primary root growth experiments were done on MS1/2 on vertical standing plates and roots were measured 11 days after germination. Roots were imaged using a flatbed scanner (EPSON Expression 11000XL) and root length was measured using ImageJ software. Arabidopsis shoot biomass was determined in 11 days after germination and growth on vertical standing plates with modMS. Arabidopsis leaf area was measured 21 days after germination on horizontal plates with modMS medium. Plates were scanned from the top using a flatbed scanner (EPSON Expression 11000XL) and the visible leaf area was measured using ImageJ software. Rice plate experiments used vertically standing Petri dishes containing MS1/2 medium (low phosphate - 0.001 mM) solidified with 0.8% washed agar. Plant height was measured 11 days after germination. Rice box experiments used modMS medium and a low phosphate condition of 0.025 mM phosphate. Plant height was measured 13 days after germination. All growth experiments occurred with 10 µM of compound and in low phosphate conditions, unless stated otherwise. Controls always received the same DMSO concentration.

The test system of experiment [2] is Arabidopsis. As to the kind of experiment: Arabidopsis horizontal plate growth assay (leaf area). In kind it is in vivo, Arabidopsis thaliana. Conditions: 10 µM, 21 days after germination. As for the experimental part: (§2) All Arabidopsis plant experiments were performed using the Arabidopsis thaliana Columbia-0 background. The Arabidopsis pSPX1::GUS line is described in the […] 2008, 54: 965-975. For rice, the cultivar Nipponbare was used. For maize, the cultivars DKC 2931 and B104 were used for regular pot experiments and sand-based pot experiments, respectively. For soybean, the cultivar Primus was used. […] The medium was solidified due to the addition of 0,6% Gelrite, unless stated otherwise. […]
(§3) Arabidopsis primary root growth experiments were done on MS1/2 on vertical standing plates and roots were measured 11 days after germination. Roots were imaged using a flatbed scanner (EPSON Expression 11000XL) and root length was measured using ImageJ software. Arabidopsis shoot biomass was determined in 11 days after germination and growth on vertical standing plates with modMS. Arabidopsis leaf area was measured 21 days after germination on horizontal plates with modMS medium. Plates were scanned from the top using a flatbed scanner (EPSON Expression 11000XL) and the visible leaf area was measured using ImageJ software. […] Plant height was measured 11 days after germination. […] Plant height was measured 13 days after germination. […]

In experiment [3] the test system is Arabidopsis. As to the kind of experiment: Arabidopsis pot experiment. In kind it is in vivo, Arabidopsis thaliana. To be noted: low phosphate, 10 µM, 4 weeks of growth. As for the experimental part:
as §2
(§4) Regular Arabidopsis and maize pot experiments used an unfertilized potting soil, which was supplemented at the start of the experiment with 50 ml H2O containing 0.25 g/l NH4NO3 and 0.44 g/l (high phosphate) or no (maize and soybean) or 0.11 g/l KH2PO (Arabidopsis) for low phosphate conditions. […] Compound concentration was 10 µM, calculated based on the total water content after watering, and was added at the start of the experiment (Arabidopsis) or once a week (maize). […] All parameters in the sand experiment, except the rate of leaf 4 (measured the first 4 days after emergence), were measured 19 days after sowing. Measurements in the pot experiments with potting soil were done after 4 weeks of growth, except for leaf 5, which was measured at 26 days. s. […]

Experiment [4] relates to Rice. As to the kind of experiment: Rice plate experiment. In kind it is in vivo. To be noted: low phosphate 0.001 mM, 10 µM, 11 days after germination. As for the experimental part: as §2, §3
The test system of experiment [5] is Rice. As to the kind of experiment: Rice box experiment. In kind it is in vivo. To be noted: low phosphate 0.025 mM, 10 µM, 13 days after germination. As to the method: as §2, §3
In experiment [6] the test system is Maize. As to the kind of experiment: Sand-based maize pot experiment. In kind it is in vivo. To be noted: low phosphate, 10 µM. As for the experimental part:
as §1
as §4, with “conditions. For the sand-based maize pot experiment, sand was supplemented with 50 ml H2O containing 0.25 g/l NH4NO3 and 0.38 g/l (high phosphate) or 0.02 g/l (low phosphate) KH2PO4.” for “conditions.”

For experiment [7], the system named is Maize. As to the kind of experiment: Regular maize pot experiment (potting soil). It counts as in vivo. Conditions: low phosphate, 10 µM once a week. As to the method: as §1
as §4, with “conditions. For the sand-based maize pot experiment, sand was supplemented with 50 ml H2O containing 0.25 g/l NH4NO3 and 0.38 g/l (high phosphate) or 0.02 g/l (low phosphate) KH2PO4.” for “conditions.”

The subject of experiment [8] is Maize. As to the kind of experiment: Long term maize pot experiment, cultivar B104 (Phenovision platform). It counts as in vivo. As for the experimental part: (§5) Regular Arabidopsis and maize pot experiments used an unfertilized potting soil, which was supplemented at the start of the experiment with 50 ml H2O containing 0.25 g/l NH4NO3 and 0.44 g/l (high phosphate) or no (maize and soybean) or 0.11 g/l KH2PO (Arabidopsis) for low phosphate conditions. For the sand-based maize pot experiment, sand was supplemented with 50 ml H2O containing 0.25 g/l NH4NO3 and 0.38 g/l (high phosphate) or 0.02 g/l (low phosphate) KH2PO4. Potassium was balanced via addition of KCI. Compound concentration was 10 µM, calculated based on the total water content after watering, and was added at the start of the experiment (Arabidopsis) or once a week (maize). Indexed chlorophyll contents were received via a SPAD 502 Plus Chlorophyll Meter. All parameters in the sand experiment, except the rate of leaf 4 (measured the first 4 days after emergence), were measured 19 days after sowing. Measurements in the pot experiments with potting soil were done after 4 weeks of growth, except for leaf 5, which was measured at 26 days. s. The long term maize pot experiment was performed on the automated Phenovision platform (see Mertens et al, 2021, 20 https.l/doi.org/10.3389/fpls.2021.640914) with maize cultivars B104 and DKC2931. End point measurements occurred after 90 days (B104) or 70 days (DKC2931). Plants were grown on an unfertilized potting soil, which was fertilized bi-weekly with 50 mL modified Hoagland solution (2.5 x concentrated; but with 0.25 mM KH2PO4.).

The subject of experiment [9] is Maize. As to the kind of experiment: Long term maize pot experiment, cultivar DKC2931 (Phenovision platform). To be noted: DKC2931, 70 days. It counts as in vivo. As for the experimental part: as §5
Experiment [10] relates to Arabidopsis, rice, soybean and maize. As to the kind of experiment: Growth experiments in different growing systems and plant species (summary statement). In kind it is in vivo. Conditions: result in words; plate, box or pot experiments. As for the experimental part: as §2, §3
Where [11] appears, read: Arabidopsis vertical plate, 10 µM, 11 days after germination.
The mark [12] stands for this setting: Maize pot long term, B104, 90 days.

On to `COC(=O)C1CN(Cc2sccc2Br)C[C@@H](C)O1` (stereo partly shown), for which the “GUS (SPX1) stained area normalized to the number of seeds (pixels)” value (shortened to “GUS (SPX1) stained area normalized”) in the experiment on SPX1 (Table 3) was 13 pixels.
With `CCc1nnsc1C(=O)NCc1ccccc1N1CCOCC1`, the “GUS (SPX1) stained area normalized” value with SPX1 (Table 3) is recorded as 13 pixels.
Take `O=C1NC(c2cc3ccccc3nc2N2CCOCC2)Nc2ccccc21` (stereo not shown): the “GUS (SPX1) stained area normalized” value with SPX1 (Table 3) is given as 14 pixels.
Regarding `Cc1nc(N2CCOCC2)sc1C(=O)NN` [Compound 4.1], the “Primary root length (in % versus control)” value in the experiment with Arabidopsis [1] came out at 118%.
Consider `CNC(=O)c1sc(N2CCOC(C)C2)nc1C` (stereo not shown) [Compound 4.3], for which, in the experiment with Arabidopsis [1], the “Primary root length (in % versus control)” value was found to be 122%.
For `CC(C)c1ncsc1C(=O)NCC1CN(C)CCO1` (stereo not shown) [Compound 4.4], the “GUS (SPX1) stained area normalized” value with SPX1 (Table 2) was 106 pixels.
Take `Cc1nc(N2CCOCC2)sc1CNCC1CN(C)CCO1` (stereo not shown) [Compound 4]: the “GUS (SPX1) stained area normalized” value in the experiment on SPX1 (Table 2) is 9 pixels. Further, the “suppression of the SPX1 biomarker (blue GUS staining)” value in the experiment with SPX1 (result in words, 7 days of growth in low phosphate conditions) is given as “practically completely suppressed”. Further, in the experiment with Arabidopsis [1] (setting [11]), the “Primary root length (cm)” value stood at 3.8 cm and the “Shoot biomass” value was 26 mg. Further, the “Primary root length (in % versus control)” value with Arabidopsis [1] was 211%. In addition, in the experiment on Arabidopsis [1] (result in words, 10 µM, 11-day-old Arabidopsis plants), the “primary root length relative to the control without compound” value is given as “almost double”. For the same compound, in the experiment with Arabidopsis [2] (low phosphate), the “Leaf area (mm^2)” value is 91 mm^2. For the same compound, the “Leaf area (mm^2) in suboptimal phosphate conditions” value in the experiment on Arabidopsis [2] (suboptimal phosphate) was 151 mm^2. Besides, the “Rosette size (cm^2)” value in the experiment on Arabidopsis [3] was found to be 19 cm^2. For the same compound, the “Plant height (cm)” value in the experiment on Rice [4] stood at 15.8 cm. In addition, the “Plant height (cm)” value with Rice [5] turned out to be 5.1 cm. In the experiment on Maize [6] (19 days after sowing), the Crown root number amounted to 7 and the “Plant height (cm)” value was determined as 26 cm. The “Growth rate of leaf 4” value in the experiment with Maize [6] (first 4 days after emergence) amounted to 2.3 cm/day. For the same compound, in the experiment on Maize [7] (4 weeks of growth), the “Plant height (cm)” value was found to be 62 cm and the “Shoot weight” value was found to be 4.4 g. Further, in the experiment with Maize [7] (26 days), the “Leaf 5 (cm)” value is 45 cm. Also, in the experiment with Maize [8] (setting [12]), the “Biomass” value was found to be 29 g, the “Plants with developed ears (%)” value came to 54% and the “Sum of leaf length (cm)” value worked out at 5473 cm. In addition, the ear formation entry in the experiment with Maize [8] (result in words, maize) is “stimulated”. For the same compound, in the experiment on Maize [9], the “Biomass” value is reported as 31 g, the “Plants with developed ears (%)” value worked out at 100% and the “Sum of leaf length (cm)” value came to 3894 cm. In addition, the “effect on the shoot biomass, leaf area or plant height” value in experiment [10] is listed as “clear positive effect”.
